Laboratory results taken from patent US8461184B2, “Sulphur containing pyrazole derivatives as selective cannabinoid CB1 receptor antagonists” (Solvay Pharmaceuticals B.V., priority 2006, dated 2013).
Where two headings read alike, the source gives them in different places.

Columns and labels:
[1] = biological target: T1, human cannabinoid CB2 receptor (Homo sapiens, UniProt P34972); assay: In vitro affinity for human cannabinoid-CB2 receptors ([3H]CP-55,940 radioligand, CHO cell membranes); format: binding; settings: mean of at least three independent experiments, read-out: hCB2 Ki
T1 construct: expressed in transfected cells; host or cells: Chinese hamster ovary (CHO) cells, membrane preparation
Description: In vitro affinity for human cannabinoid-CB2 receptors.
(§1) The affinity of the compounds of the invention for cannabinoid CB2 receptors can be determined using membrane preparations of Chinese hamster ovary (CHO) cells in which the human cannabinoid CB2 receptor is stably transfected in conjunction with [^3H]CP-55,940 as radioligand. After incubation of a freshly prepared cell membrane preparation with the [^3H]-ligand, with or without addition of compounds of the invention, separation of bound and free ligand is performed by filtration over glassfiber filters. Radioactivity on the filter was measured by liquid scintillation counting.

[2] = biological target: T2, human cannabinoid CB1 receptor (Homo sapiens, UniProt P21554); assay: In vitro affinity for human cannabinoid-CB1 receptors ([3H]CP-55,940 radioligand, CHO cell membranes); format: binding; settings: for CB1/CB2 ratio: CB1/CB2 receptor selectivity ratio from hCB1 and hCB2 Ki; for Ki: human CB1 receptor in CHO cell membranes, [3H]CP-55,940, mean of at least three independent experiments, read-out: hCB1 Ki
T2 construct: expressed in transfected cells; host or cells: Chinese hamster ovary (CHO) cells, membrane preparation
Description: In vitro affinity for human cannabinoid-CB1 receptors.
as §1, with “CB1” for “CB2”, “is” for “was”

CB1 receptor = biological target: T3, CB1 receptor (Rattus norvegicus, UniProt P20272); assay: CP-55,940 induced hypotension in the rat; format: in vivo; settings: read-out: Blood pressure (rat) ED50
T3 construct: from tissue; host or cells: whole animal: male normotensive rats (Harlan)
Description: Blood pressure was measured, via a cannula inserted into the left carotid artery, by means of a Spectramed DTX-plus pressure transducer (Spectramed B. V., Bilthoven, The Netherlands). […] Heart rate was derived from the pulsatile pressure signal. […] The injection volume was 10 ml/kg.

[3] = p.o., antagonism of hypotension induced by CP-55,940 (0.1 mg/kg i.v.), anaesthetized male normotensive rats

T3 sequence (P20272 whole entry): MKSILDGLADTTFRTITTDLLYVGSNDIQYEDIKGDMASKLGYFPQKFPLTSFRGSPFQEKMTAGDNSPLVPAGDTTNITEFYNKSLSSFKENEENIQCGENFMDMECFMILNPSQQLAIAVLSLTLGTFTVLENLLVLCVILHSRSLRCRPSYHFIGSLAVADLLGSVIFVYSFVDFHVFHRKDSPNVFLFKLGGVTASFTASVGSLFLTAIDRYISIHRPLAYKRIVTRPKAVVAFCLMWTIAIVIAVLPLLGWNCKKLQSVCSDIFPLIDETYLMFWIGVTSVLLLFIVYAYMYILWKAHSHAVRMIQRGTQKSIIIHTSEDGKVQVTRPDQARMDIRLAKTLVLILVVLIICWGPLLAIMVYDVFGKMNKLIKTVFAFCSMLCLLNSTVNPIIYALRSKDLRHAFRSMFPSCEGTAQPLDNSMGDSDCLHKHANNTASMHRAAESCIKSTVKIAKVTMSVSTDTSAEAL
T2 sequence (P21554 whole entry): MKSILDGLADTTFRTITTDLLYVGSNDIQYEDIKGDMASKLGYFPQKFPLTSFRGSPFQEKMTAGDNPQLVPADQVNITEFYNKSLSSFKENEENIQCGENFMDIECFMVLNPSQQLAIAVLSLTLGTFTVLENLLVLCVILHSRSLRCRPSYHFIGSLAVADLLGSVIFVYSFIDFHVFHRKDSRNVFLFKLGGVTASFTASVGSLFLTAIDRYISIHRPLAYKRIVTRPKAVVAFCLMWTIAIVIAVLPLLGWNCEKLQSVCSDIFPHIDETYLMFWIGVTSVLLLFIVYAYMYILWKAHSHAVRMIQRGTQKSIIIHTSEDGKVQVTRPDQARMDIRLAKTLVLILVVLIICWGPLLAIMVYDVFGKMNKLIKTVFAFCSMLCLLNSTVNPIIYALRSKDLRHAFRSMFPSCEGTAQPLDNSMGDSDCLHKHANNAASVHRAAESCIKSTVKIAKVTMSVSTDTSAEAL
T1 sequence (P34972 whole entry): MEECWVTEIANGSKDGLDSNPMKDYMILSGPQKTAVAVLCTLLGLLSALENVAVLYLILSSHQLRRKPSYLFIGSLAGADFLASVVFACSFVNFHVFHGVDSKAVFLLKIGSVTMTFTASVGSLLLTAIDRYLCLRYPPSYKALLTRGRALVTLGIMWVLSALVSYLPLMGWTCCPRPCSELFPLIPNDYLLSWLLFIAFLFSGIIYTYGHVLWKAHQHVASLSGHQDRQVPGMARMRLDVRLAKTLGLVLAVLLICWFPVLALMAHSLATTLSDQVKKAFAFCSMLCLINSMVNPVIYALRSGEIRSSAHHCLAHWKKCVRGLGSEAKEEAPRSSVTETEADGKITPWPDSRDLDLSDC

Ki [1] [µM]	CB1/CB2 ratio [2]	Ki [2] [µM]	SMILES	ED50 (CB1 receptor; [3]) [mg/kg]	melting point [°C]	ED50 (CB1 receptor) [mg/kg]
0.5	25	0.02	CSc1c(C(=O)NN2CCCCCC2)nn(-c2ccc(Cl)cc2Cl)c1-c1ccc(Cl)cc1 [Comp. 3, 5-(4-Chlorophenyl)-1-(2,4-dichlorophenyl)-4-methylsulfanyl-N-(azepan-1-yl)-1H-pyrazole-3-carboxamide]	3.1	–	–
0.34	>34	< 0.01	CSc1c(C(=O)NN2CCCC2)nn(-c2ccc(Cl)cc2Cl)c1-c1ccc(Cl)cc1 [Comp. 2, 5-(4-Chlorophenyl)-1-(2,4-dichlorophenyl)-4-methylsulfanyl-N-(pyrrolidin-1-yl)-1H-pyrazole-3-carboxamide]	1.9	–	–

SMILES	Ki [1] [µM]	CB1/CB2 ratio [2]	Ki [2] [µM]	ED50 (CB1 receptor; [3]) [mg/kg]	melting point [°C]	ED50 (CB1 receptor) [mg/kg]
CSc1c(C(=O)NN2CCCCC2)nn(-c2ccc(Cl)cc2Cl)c1-c1ccc(Cl)cc1 [Comp. 1, 5-(4-Chlorophenyl)-1-(2,4-dichlorophenyl)-4-methylsulfanyl-N-(piperidin-1-yl)-1H-pyrazole-3-carboxamide]	0.668	67	0.01	–	172.4 to 174.5	1.5
